Laboratory results published in US20150125889A1, “IN VITRO DETECTION OF MICROORGANISMS WITH AZOREDUCTASE ACTIVITY” (BIOMÉRIEUX, priority 2012, published 2015).

Key:
Type in all cases: cell-based
[1] = tested on: 10 strains representing 10 species of microorganisms; assay: Reduction of azo substrates, whole panel of Example 1; details: substrate 35 mg/l, 35° C., 24 hours
Method: Reduction of the “azo” function of the substrates listed in Table I by the species listed in Table II, each species being represented by a strain, is tested in a microtitration plate.
The reaction medium consists of: • Trypcase soya broth • Substrate 35 mg/l • 0.5 MacFarland inoculum
The reduction of the substrate and the growth of the microorganisms are monitored using an Infinite® M200 Tecan microplate reader at 35° C. over 24 hours.
The growth is monitored by the absorbance at 660 nm and the reduction of the substrates by absorbance and fluorescence at the specific wavelengths indicated in Table III.
The substrate is considered as reduced by the microorganisms when the substrate is decolourized (monitored by the decrease in absorbance) (Decol) and/or when the fluorescence of the substrate is multiplied by 2 relative to the base fluorescence of a substrate-free control (Fluo). The growth is indicated by Co. The symbol “+” means good growth/decolourization/significant increase in fluorescence. The symbol “+/−” means difficult growth. The symbol “−” means that there is no growth/decolourization/significant increase in fluorescence. RED indicates whether the substrate is reduced (Y) or not (N).

Pseudomonas aeruginosa = assay: Reduction of azo substrates over 24 hours at 35° C., microtitration plate (Example 1); parameters: key to RED (substrate reduced or not): RED indicates whether the substrate is reduced (Y) or not (N); RED indicates whether the substrate is reduced (Y) or not (N); key to Co (growth, absorbance at 660 nm) / Decol (substrate decolourized, decrease in absorbance) / Fluo (fluorescence multiplied by 2 relative to substrate-free control): The symbol “+” means good growth/decolourization/significant increase in fluorescence; The symbol “+/−” means difficult growth; The symbol “−” means that there is no growth/decolourization/significant increase in fluorescence; details: P. aeruginosa, substrate 35 mg/l
How it was run: (§1)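 Each species is represented by a single strain inoculated at 0.5 McFarland into Trypcase soya broth with substrate at 35 mg/l. Plates are read continuously at 35° C. over 24 hours. A substrate counts as reduced when absorbance falls or fluorescence doubles relative to a substrate-free control.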

Candida albicans = assay: as above; parameters: key to RED (substrate reduced or not): RED indicates whether the substrate is reduced (Y) or not (N); RED indicates whether the substrate is reduced (Y) or not (N); key to Co (growth, absorbance at 660 nm) / Decol (substrate decolourized, decrease in absorbance) / Fluo (fluorescence multiplied by 2 relative to substrate-free control): The symbol “+” means good growth/decolourization/significant increase in fluorescence; The symbol “+/−” means difficult growth; The symbol “−” means that there is no growth/decolourization/significant increase in fluorescence; details: substrate 35 mg/l
How it was run: as §1

Kocuria rosea = assay: as above; parameters: key to RED (substrate reduced or not): RED indicates whether the substrate is reduced (Y) or not (N); RED indicates whether the substrate is reduced (Y) or not (N); key to Co (growth, absorbance at 660 nm) / Decol (substrate decolourized, decrease in absorbance) / Fluo (fluorescence multiplied by 2 relative to substrate-free control): The symbol “+” means good growth/decolourization/significant increase in fluorescence; The symbol “+/−” means difficult growth; The symbol “−” means that there is no growth/decolourization/significant increase in fluorescence; details: K. rosea, substrate 35 mg/l
How it was run: as §1

[2] = tested on: 45 strains representing 25 species of microorganisms; assay: Reduction of 3 azo substrates, whole panel of Example 2; details: substrate 35 mg/l, 35° C., 24 hours
Method: (§2) The reduction of the “azo” function of the substrates listed in Table V by the 25 species listed in Table VI, each being represented by one or two strains, is tested in a microtitration plate. The reaction medium consists of: • Trypcase soya broth • Substrate 35 mg/l • 0.5 MacFarland inoculum The reduction of the substrate and the growth of the microorganisms are monitored using an Infinite® M200 Tecan microplate reader at 35° C. over 24 hours. The growth is monitored by the absorbance at 660 nm, and the reduction of the substrates by absorbance and fluorescence at the wavelengths indicated in Table III above. The substrate is considered as reduced by the microorganisms when the fluorescence is multiplied by 2 relative to the base fluorescence of the reaction medium.

Citrobacter koseri = assay: Reduction of 3 azo substrates over 24 hours at 35° C. (Example 2); parameters: key: The strains that reduce the substrate are marked with a “+”; the strains that do not reduce the substrate are marked with a “−”; details: substrate 35 mg/l
Method: as §2

Staphylococcus hominis = assay: as above; parameters: key: The strains that reduce the substrate are marked with a “+”; the strains that do not reduce the substrate are marked with a “−”; details: substrate 35 mg/l
Method: as §2

Saccharomyces cerevisiae = assay: as above; parameters: key: The strains that reduce the substrate are marked with a “+”; the strains that do not reduce the substrate are marked with a “−”; details: substrate 35 mg/l
Method: as §2

[3] = tested on: Staphylococcus haemolyticus; assay: as above; parameters: key: The strains that reduce the substrate are marked with a “+”; the strains that do not reduce the substrate are marked with a “−”; details: substrate 35 mg/l
Method: as §2

Streptococcus pyogenes = assay: as above; parameters: key: The strains that reduce the substrate are marked with a “+”; the strains that do not reduce the substrate are marked with a “−”; details: substrate 35 mg/l
Method: as §2

| Compound | reduction by the microorganisms tested (Table IV) [1] | Co (growth, absorbance at 660 nm) (Pseudomonas aeruginosa) | Decol (substrate decolourized, decrease in absorbance) (Pseudomonas aeruginosa) | Fluo (fluorescence multiplied by 2 relative to substrate-free control) (Pseudomonas aeruginosa) | RED (substrate reduced or not) (Pseudomonas aeruginosa) | Co (growth, absorbance at 660 nm) (Candida albicans) | Decol (substrate decolourized, decrease in absorbance) (Candida albicans) | Fluo (fluorescence multiplied by 2 relative to substrate-free control) (Candida albicans) | RED (substrate reduced or not) (Candida albicans) | Co (growth, absorbance at 660 nm) (Kocuria rosea) | Decol (substrate decolourized, decrease in absorbance) (Kocuria rosea) | Fluo (fluorescence multiplied by 2 relative to substrate-free control) (Kocuria rosea) | RED (substrate reduced or not) (Kocuria rosea) | reduction by the species tested (Table VII) [2] | reduction of the substrate by the strain (fluorescence multiplied by 2) (Citrobacter koseri) | reduction of the substrate by the strain (fluorescence multiplied by 2) (Staphylococcus hominis) | reduction of the substrate by the strain (fluorescence multiplied by 2) (Saccharomyces cerevisiae) | reduction of the substrate by the strain (fluorescence multiplied by 2) [3] | reduction of the substrate by the strain (fluorescence multiplied by 2) (Streptococcus pyogenes) |
| --- | --- | --- | --- | --- | --- | --- | --- | --- | --- | --- | --- | --- | --- | --- | --- | --- | --- | --- | --- |
| CN(C)c1ccc(/N=N/c2ccccc2C(=O)O)cc1 [Methyl red] | can be reduced by all the microorganisms tested | + | +/− | + | Y | + | + | + | Y | +/− | +/− | + | Y |  |  |  |  |  |  |
| O=C([O-])C1=NN(c2ccc(S(=O)(=O)[O-])cc2)C(=O)C1/N=N/c1ccc(S(=O)(=O)[O-])cc1.[Na+].[Na+].[Na+] (centres unmarked) [Tartrazine] |  | + | − | − | N | + | − | − | N | − | − | − |  | reduced mainly by E. faecalis | − | − | − | − | − |
| CN(C)c1ccc(N=Nc2ccc(S(=O)(=O)[O-])cc2)cc1.[Na+] [Methyl orange] | reduced only by E. faecalis | + | − | − | N | + | − | − | N | − | − | − |  |  |  |  |  |  |  |
| O=C(O)c1cc(/N=N/c2ccc(-c3nc4ccccc4s3)cc2)ccc1O [BF45, 2-Phenyl-benzothiazole-4′-azo-4″- hydroxybenzene-3″-carboxylic acid] |  | + | − | − | N | + | − | − | N | + | − | + | Y |  |  |  |  |  |  |
| O=S(=O)([O-])c1ccc(N=Nc2c(O)ccc3ccccc23)cc1.[Na+] [Orange II] |  | + | − | − | N | + | − | − | N | − | − | − |  | reduced mainly by E. faecalis | − | − | − | − | − |
